Experimental data taken from PubChem BioAssay (NCI).
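Assay format: 96-well plates, 48-hour exposure. GI50: concentration for 50% inhibition of growth. TGI: total growth inhibition.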

Tests used:
Assay in all cases: NCI-60 cell line screen, 48 h; in the data active = GI50 below about 0.43 µM; inactive = the rest
[1] = tested on: M14 melanoma
[2] = tested on: SK-MEL-28 melanoma
[3] = tested on: HOP-62 NSCLC
[4] = tested on: SW-620 colon
[5] = tested on: A549 NSCLC
[6] = tested on: NCI-H23 lung
[7] = tested on: CAKI-1 renal
[8] = tested on: COLO 205 colon
[9] = tested on: NCI-H226 lung
[10] = tested on: BT-549 breast
[11] = tested on: LOX IMVI melanoma
[12] = tested on: NCI-H522 lung
[13] = tested on: SK-MEL-5 melanoma
[14] = tested on: SNB-19 CNS
[15] = tested on: U251 CNS
[16] = tested on: OVCAR-4 ovarian
[17] = tested on: IGROV1 ovarian
[18] = tested on: DU-145 prostate
[19] = tested on: HCC-2998 colon
[20] = tested on: SN12C renal
[21] = tested on: MCF7 breast
[22] = tested on: MDA-MB-435
[23] = tested on: UACC-62 melanoma
[24] = tested on: T-47D breast
[25] = tested on: RPMI-8226 leukemia
[26] = tested on: MALME-3M melanoma
[27] = tested on: A498 renal
[28] = tested on: SF-295 CNS
[29] = tested on: HCT-15 colon
[30] = tested on: HS 578T breast
[31] = tested on: MDA-MB-231 breast
[32] = tested on: OVCAR-8 ovarian
[33] = tested on: SF-539 CNS
[34] = tested on: HOP-92 NSCLC
[35] = tested on: UO-31 renal
[36] = tested on: KM12 colon
[37] = tested on: SNB-75 CNS
[38] = tested on: UACC-257 melanoma
[39] = tested on: 786-0 renal
[40] = tested on: SK-MEL-2 melanoma
[41] = tested on: EKVX NSCLC
[42] = tested on: ACHN renal
[43] = tested on: NCI-H460 lung
[44] = tested on: RXF 393 renal
[45] = tested on: OVCAR-3 ovarian
[46] = tested on: SF-268 CNS
[47] = tested on: NCI/ADR-RES ovarian
[48] = tested on: HCT-116 colon
[49] = tested on: PC-3 prostate
[50] = tested on: HT29 colon
[51] = tested on: OVCAR-5 ovarian
[52] = tested on: TK-10 renal
[53] = tested on: SK-OV-3 ovarian
[54] = tested on: K-562 leukemia
[55] = tested on: CCRF-CEM leukemia
[56] = tested on: MOLT-4 leukemia
[57] = tested on: SR leukemia
[58] = tested on: HL-60(TB) leukemia

COc1cc(-c2nccc3cc4c(cc23)OCO4)cc(OC)c1OC
18.3 µM: TGI [44]
3.55 µM: TGI [22]
79.7 µM: TGI [37]
15.2 µM: TGI [27]
44.1 µM: TGI [33]
active: GI50 [22] 0.411 µM
27.4 µM: TGI [12]
51.7 µM: TGI [19]
10.5 µM: TGI [7]
14.2 µM: TGI [28]
inactive: GI50 [1] 3.36 µM | GI50 [2] 16.6 µM | GI50 [3] 7.55 µM | GI50 [4] 2.77 µM | GI50 [5] 7.37 µM | GI50 [6] 4.73 µM | GI50 [7] 2.52 µM | GI50 [8] > 100 µM | GI50 [9] 16.4 µM | GI50 [10] 16.6 µM | GI50 [11] 6.06 µM | GI50 [12] 2.33 µM | GI50 [13] 3.16 µM | GI50 [14] 7.34 µM | GI50 [15] 4.86 µM | GI50 [16] > 100 µM | GI50 [17] 8.92 µM | GI50 [18] 3.87 µM | GI50 [19] 8.68 µM | GI50 [20] 7.64 µM | GI50 [21] 2.88 µM | GI50 [23] 4.55 µM | GI50 [24] 5.25 µM | GI50 [25] 4.98 µM | GI50 [26] 26.9 µM | GI50 [27] 2.55 µM | GI50 [28] 2.03 µM | GI50 [29] 3.57 µM | GI50 [30] 1.64 µM | GI50 [31] 16.1 µM | GI50 [32] 7.08 µM | GI50 [33] 3.31 µM | GI50 [34] 11.5 µM | GI50 [35] 6.99 µM | GI50 [36] 2.27 µM | GI50 [37] 2.45 µM | GI50 [38] > 100 µM | GI50 [39] 7.65 µM | GI50 [40] 3.08 µM | GI50 [41] 7.1 µM | GI50 [42] 9.92 µM | GI50 [43] 3.83 µM | GI50 [44] 3.4 µM | GI50 [45] 2.09 µM | GI50 [46] 5.56 µM | GI50 [47] 2.74 µM | GI50 [48] 4.56 µM | GI50 [49] 4.25 µM | GI50 [50] 2.33 µM | GI50 [51] 24.9 µM | GI50 [52] 5.64 µM | GI50 [53] 4.48 µM
> 100 µM: TGI [2] | TGI [3] | TGI [4] | TGI [5] | TGI [6] | TGI [8] | TGI [9] | TGI [10] | TGI [11] | TGI [13] | TGI [14] | TGI [15] | TGI [16] | TGI [17] | TGI [18] | TGI [20] | TGI [21] | TGI [23] | TGI [24] | TGI [25] | TGI [26] | TGI [29] | TGI [31] | TGI [32] | TGI [34] | TGI [35] | TGI [36] | TGI [38] | TGI [39] | TGI [40] | TGI [41] | TGI [42] | TGI [43] | TGI [46] | TGI [47] | TGI [48] | TGI [49] | TGI [50] | TGI [51] | TGI [52] | TGI [53]
4.72 µM: TGI [45]
9.57 µM: TGI [30]
23.2 µM: TGI [1]

COc1cccc(NC(=O)c2sc3nc4c(cc3c2N)C(O)CCC4)c1 (stereo unspecified)
64.6 µM: TGI [3]
active: GI50 [1] 0.134 µM | GI50 [3] 0.26 µM | GI50 [4] 0.107 µM | GI50 [5] 0.287 µM | GI50 [54] 0.0406 µM | GI50 [55] 0.22 µM | GI50 [8] 0.226 µM | GI50 [10] 0.274 µM | GI50 [12] 0.105 µM | GI50 [56] 0.294 µM | GI50 [13] 0.311 µM | GI50 [15] 0.244 µM | GI50 [17] 0.383 µM | GI50 [18] 0.292 µM | GI50 [19] 0.347 µM | GI50 [57] 0.0432 µM | GI50 [21] 0.0523 µM | GI50 [23] 0.15 µM | GI50 [25] 0.333 µM | GI50 [27] 0.112 µM | GI50 [58] 0.0534 µM | GI50 [28] 0.157 µM | GI50 [29] 0.0856 µM | GI50 [30] 0.325 µM | GI50 [32] 0.377 µM | GI50 [33] 0.14 µM | GI50 [34] 0.169 µM | GI50 [36] 0.111 µM | GI50 [37] 0.17 µM | GI50 [40] 0.249 µM | GI50 [43] 0.324 µM | GI50 [44] 0.278 µM | GI50 [45] 0.106 µM | GI50 [47] 0.206 µM | GI50 [48] 0.117 µM | GI50 [49] 0.23 µM | GI50 [50] 0.133 µM | GI50 [53] 0.317 µM
> 49.9 µM: TGI [30]
0.87 µM: TGI [8]
> 100 µM: TGI [1] | TGI [2] | TGI [4] | TGI [5] | TGI [6] | TGI [54] | TGI [55] | TGI [7] | TGI [9] | TGI [10] | TGI [11] | TGI [56] | TGI [16] | TGI [17] | TGI [19] | TGI [20] | TGI [57] | TGI [21] | TGI [23] | TGI [24] | TGI [25] | TGI [29] | TGI [31] | TGI [32] | TGI [35] | TGI [36] | TGI [38] | TGI [39] | TGI [40] | TGI [42] | TGI [43] | TGI [47] | TGI [48] | TGI [49] | TGI [50] | TGI [51] | TGI [52]
0.606 µM: TGI [33]
inactive: GI50 [2] 0.787 µM | GI50 [6] 0.442 µM | GI50 [7] 0.538 µM | GI50 [9] 0.669 µM | GI50 [11] 0.766 µM | GI50 [14] 2.12 µM | GI50 [16] 0.775 µM | GI50 [20] 0.562 µM | GI50 [24] 0.727 µM | GI50 [31] 0.448 µM | GI50 [35] 0.607 µM | GI50 [38] 28.2 µM | GI50 [39] 0.503 µM | GI50 [42] 0.956 µM | GI50 [46] 0.496 µM | GI50 [51] 0.521 µM | GI50 [52] 46.8 µM
> 92.2 µM: TGI [28]
> 93.2 µM: TGI [14]
> 29.2 µM: TGI [18]
2.57 µM: TGI [12]
> 55 µM: TGI [46]
37.7 µM: TGI [44]
0.515 µM: TGI [45]
24.7 µM: TGI [37]
> 71.3 µM: TGI [53]
4 µM: TGI [27]
8.29 µM: TGI [13]
> 51.6 µM: TGI [15]
23 µM: TGI [34]
0.534 µM: TGI [58]
